Entries after “also recorded” stand apart in the source; their conditions may differ. Where two headings read alike, the source gives them in different places.
Experiments:
IL-6 [1] = experiment: Serum IL-6 in 5-FU treated monkeys; format: in vivo, cynomolgous monkeys
Method: (§1) Groups of 3 cynomolgous monkeys are treated with 5FU at 125 mg/kg and
(§2) beginning 24 hours later treated with test compound s.c. at 0.05 mg/kg.
(§3) The data reported are from sera taken 4 hours after test compound

neutrophils [2] = experiment: Neutrophil recovery in 5-FU treated mice; format: in vivo, mouse; settings: for Neutrophils/cu. mm.: day 7 post 5FU 150 mg/kg, 10 mice/group, vehicle 157 ± 52
Method: (§4) Circulating Neutrophil Assay--Mice are treated with 5-FU (150 mg/kg) and beginning 24 hrs. later, treated daily with the test compound. Mice are bled daily by retroorbital puncture in heparinized capillary tubes. Circulating WBC counts are determined by Coulter counter. Blood smears are stained with Wright-Geimsa solution and the percentage circulating neutrophils determined by differential counting under a microscope.
(§5) 5-Fluorouracil (5-FU) Induced Neutropenia In Mice--Mice are treated ip with 150 mg/kg of the chemotherapy agent 5-FU which induces a severe loss of neutrophils in the peripheral blood 5-6 days later. Twenty-four hrs. after the dose, treatment with the test compounds is initiated. The effect of the test compounds on recovery of neutrophil progenitor cells in the bone marrow is determined by the CFU-GM assay. The recovery of circulating neutrophils is followed by differential staining of the peripheral blood.
*Data from 10 mice/group on day 7 post treatment with 150 mg/kg of 5FU.
Beginning 24 hrs. after 5FU dose, mice were treated daily with test
compound at concentrations indicated. Neutrophil count for normal mice (n
**Mice treated with 5FU and vehicle only.

bone marrow CFU-GM = experiment: Bone marrow CFU-GM in 5-FU treated mice; format: in vivo, mouse
Method: Colony forming assays Granulocyte-Macrophage (CFU-GM)--Mice are treated with 150 mg/kg of 5-Fu and treatment with test compound begins 24 hrs. later. On consecutive days, mice are killed by cervical dislocation and the femurs removed under sterile conditions. Femurs are flushed with 1 ml of ice cold medium (Iscove's supplemented with 20% FCS, 1% penicillin-streptomycin, 1% glutamine and 5×10^-5 M 2-mercaptoethanol). Bone marrow cells (5×10^5) are then plated in 12×75 mm tissue culture plates in 3 ml of warm ararose (3%) in Iscove's medium with 100 Units/ml of recombinant mouse GM-CSF purchased from Genzyme (Boston, Mass.). Plates are incubated for 7 days at 37° C. in 5% CO2. After 7 days, colonies of 50 cells or greater are enumerated under a dissecting microscope. 5-Fluorouracil (5-FU) Induced Neutropenia In Mice--Mice are treated ip with 150 mg/kg of the chemotherapy agent 5-FU which induces a severe loss of neutrophils in the peripheral blood 5-6 days later. Twenty-four hrs. after the dose, treatment with the test compounds is initiated. The effect of the test compounds on recovery of neutrophil progenitor cells in the bone marrow is determined by the CFU-GM assay. […]

CSF = experiment: Serum colony stimulating factor (CSF) assay in mice; format: in vivo, mouse; settings: serum 4 hours after injection
Method: Colony forming assays Granulocyte-Macrophage (CFU-GM)--Mice are treated with 150 mg/kg of 5-Fu and treatment with test compound begins 24 hrs. later. On consecutive days, mice are killed by cervical dislocation and the femurs removed under sterile conditions. Femurs are flushed with 1 ml of ice cold medium (Iscove's supplemented with 20% FCS, 1% penicillin-streptomycin, 1% glutamine and 5×10^-5 M 2-mercaptoethanol). Bone marrow cells (5×10^5) are then plated in 12×75 mm tissue culture plates in 3 ml of warm ararose (3%) in Iscove's medium with 100 Units/ml of recombinant mouse GM-CSF purchased from Genzyme (Boston, Mass.). Plates are incubated for 7 days at 37° C. in 5% CO2. After 7 days, colonies of 50 cells or greater are enumerated under a dissecting microscope.
Bone marrow cells are prepared as described above for the CFU-GM assay. The cells are then incubated in soft agar with an 0.3% final concentration of serum taken from mice 4 hours after injection with test compounds. After 7 days of incubation at 37° C., the number of colony forming (CFU) cells per 10^5 plated bone marrow cells is determined by counting colonies of more than 50 cells under a dissecting microscope. The data are reported as CFU/10^5 bone marrow cells.

neutrophils [3] = experiment: Oral dosing: neutrophil recovery in 5-FU treated mice; format: in vivo, mouse; settings: for Neutrophils/cu. mm.: day 6 after 5-FU 150 mg/kg, 0 dose 178 ± 64
Method: as §4, §5
Groups of 5 mice are treated with 150 mg/kg of 5-FU. One day later, daily oral dosing with test compounds begins and continues for 10 days. […]

IL-6 [4] = experiment: Serum IL-6 production in mice after single s.c. injection (7TD1 bioassay); format: in vivo, mouse; settings: serum 4 h post injection
Method: Description of Biological Assays Interleukin 6(IL-6) assay for structure function analysis--Test compounds are dissolved in water and administered subcutaneously in 0.2 ml to deliver a dose of 0.1-10 mg/kg. The less soluble compounds are first dissolved in 100% ethanol and then brought to the appropriate concentration in water. Four hours post injection, the mice are bled and the serum is retrieved. The IL-6 dependent cell line 7TDl is used to assay serial dilutions of sera for IL-6 content. 7TDl cells (1×10^4) are placed in microtiter wells and incubated at 37° C. for 72 hours with standard recombinant mouse IL-6 or with dilutions of serum to be tested. Over the last 6 hours, the cells are pulsed with ^3 H-Tdr (μci). Cells are then harvested and the degree of proliferation determined by the uptake of ^3 H-Tdr as measured by liquid scintillation spectrometry. The concentration of IL-6 in serum is calculated from standard curves utilizing recombinant IL-6 from R&D Systems Inc. and are reported in units of IL-6 activity as defined by the manufacturer.

[5] = system: bone marrow progenitor cells; experiment: Delta assay: expansion of bone marrow progenitor cells in vitro, with c-kit ligand (KL); format: cell-based, mouse; settings: for fold induction at 0.5 µg/mL: Mus musculus, Bone marrow cell, 168 h, 7 day in vitro incubation, read-out: Fold Increase in CFU
Method: Delta Assay--Mice are treated with a single dose of 5-FU (150 mg/kg ip). Twenty-four hours later, bone marrow cells are removed and split into 2 aliquots. […] After 14 days, the number of colonies is determined (CFU-1). A second aliquot of cells is placed in liquid culture with single growth factors or drugs or combinations of each to assess the ability of these agents to expand the colony forming cell pool. After 7 days in liquid culture, these cells are harvested and plated in soft agar with IL-1 and GM-CSF as with the first aliquot. After 14 days the number of colonies in the second aliquot is determined (CFU-2). The ratio or delta is calculated as CFU-2/CFU-1 and this ratio is used to ascertain the ability of the growth factors and/or drugs used in the liquid phase to induce growth of the colony forming cells (CFU) or differentiation of pre-CFU to CFU.
Bone marrow cells from 5-FU treated mice are used to enrich for early progenitor cells. The cells are split into 2 aliquots as described in the methods section for the "delta assay." The fold increase is determined by measuring the effect of a 7 day in vitro incubation of the cells with tissue culture medium plus test compound and/or growth factor KL on colony forming dells (CFU). The number of CFUs are then compared with colony formation of the fresh bone marrow cells that were not incubated in vitro to determine the fold increase. Test compound is used in vitro at 0.5 μg/ml.

GCSF = experiment: Serum GCSF in 5-FU treated monkeys; format: in vivo, cynomolgous monkeys
Method: as §1, §2, §3

[6] = 0.05 mg/kg s.c., 5FU 125 mg/kg, sera 4 hours after treatment, 5-FU only 0

With `CCCCCCC(=O)N[C@@H](C(=O)O)[C@@H](C)OC(=O)N[C@@H](CCC[C@@H](N)C(=O)O)C(=O)N[C@H](C)C(=O)O` [Example 28, [R-(R*,R*)]-N-(R)-6-carboxy-N^2-[[2-carboxy-1-methyl-2-[(1-oxoheptyl)amino]ethoxy]carbonyl]-L-lysyl]-D-Alanine] the “Serum IL-6” value (IL-6 [1]; [6]) was 2579 ± 318 Units/ml, the “IL-6 production in the serum of 5-FU treated primates (in words)” value (IL-6 [1]; monkey, in vivo) was “induces IL-6 and GCSF production” and the Neutrophils/cu. mm. (neutrophils [2]; 1.56 μg/kg daily) was 722 ± 199 /cu. mm. For the same compound, the Neutrophils/cu. mm. (neutrophils [2]; 3.12 μg/kg daily) was 424 ± 115 /cu. mm, the Neutrophils/cu. mm. (neutrophils [2]; 6.25 μg/kg daily) was 758 ± 249 /cu. mm and the Neutrophils/cu. mm. (neutrophils [2]; 12.50 μg/kg daily) was 1314 ± 267 /cu. mm. The Neutrophils/cu. mm. (neutrophils [2]; 25.00 μg/kg daily) was 1804 ± 408 /cu. mm, the Neutrophils/cu. mm. (neutrophils [2]; 50.00 μg/kg daily) was 1716 ± 284 /cu. mm and the Neutrophils/cu. mm. (neutrophils [2]; 100.00 μg/kg daily) was 2613 ± 364 /cu. mm. For the same compound, the “neutrophil recovery in 5-FU treated mice (in words)” value (neutrophils [2]; mouse, in vivo) was “enhances the recovery of peripheral blood neutrophils; also recorded: induce neutrophil recovery in 5-FU treated mice”, the CFU-GM/femur (bone marrow CFU-GM; 0.1 mg/kg daily s.c., day 3 after 5FU 150 mg/kg, normal 30184 ± 3677, 5-FU only 805 ± 512) was 6055 ± 534 CFU-GM/femur and the “CFU-GM in the bone marrow (in words)” value (bone marrow CFU-GM; 5-FU treated mice) was “increase of CFU-GM”. For the same compound, the “CSF production, CFU/100,000 Bone Marrow Cells” value (CSF; 0.1 mg/kg) was 95 ± 16 CFU/100,000 Bone Marrow Cells, the “CSF production, CFU/100,000 Bone Marrow Cells” value (CSF; 1.0 mg/kg) was 101 ± 8 CFU/100,000 Bone Marrow Cells and the Neutrophils/cu. mm. (neutrophils [3]; 0.1 mg/kg daily oral) was 81 ± 35 /cu. mm. For the same compound, the Neutrophils/cu. mm. (neutrophils [3]; 1 mg/kg daily oral) was 765 ± 209 /cu. mm, the Neutrophils/cu. mm. (neutrophils [3]; 10 mg/kg daily oral) was 1391 ± 350 /cu. mm and the “neutrophil recovery in 5-FU treated mice when given orally (in words)” value (neutrophils [3]; oral) was “active in accelerating neutrophil recovery”. The IL-6 (IL-6 [4]; 0.1 mg/kg s.c.) was 4802 ± 804 U/ml, the IL-6 (IL-6 [4]; 1.0 mg/kg s.c.) was 3844 ± 482 U/ml and the IL-6 (IL-6 [4]; 10.0 mg/kg s.c.) was 1718 U/ml. For the same compound, the fold induction at 0.5 µg/mL ([5]; KL + test compound (0.5 μg/ml)) was 158, the fold induction at 0.5 µg/mL ([5]; test compound alone, 0.5 μg/ml, medium alone 0) was 1.3 and the “synergy with c-kit ligand (KL) on growth of bone marrow progenitor cells (in words)” value ([5]; in vitro) was “acts synergistically”. For the same compound, the “Serum GCSF” value (GCSF; [6]) was 3962 ± 2178 pg/mL and the “GCSF production in the serum of 5-FU treated primates (in words)” value (GCSF; monkey, in vivo) was “induces IL-6 and GCSF production”.
